41 compounds from US7538241B2, “Hsp90 family protein inhibitors” (Kyowa Hakko Kogyo Co., Ltd., priority 2003, dated 2009) can be followed below.

The test deals with human mammary cancer-derived KPL-4 cells. The test can be described thus: Cell growth inhibition test with KPL-4 cells (WST-1). Conditions: KPL4, 72 hours, read-out: 50% growth inhibition concentration (GI50). It is filed as cell-based. How it is done: In a 96-well plate (Nunc), human mammary cancer-derived KPL-4 cells were sown in an amount of 2000 cells/well, and pre-incubated in 10% fetal calf serum (FCS)-containing Dulbecco Modified Eagle Medium (DMEM) (incubation medium) in a 5% carbon dioxide incubator at 37° C. for 24 hours. A dimethylsulfoxide (DMSO) solution of a test compound controlled at 10 mmol/L was stepwise diluted with the incubation medium, and added to each well in a total amount of 100 μL/well, and incubated in the 5% carbon dioxide incubator at 37° C. for 72 hours. After the incubation, WST-1 {4-[3-(4-Iodophenyl)-2-(4-nitrophenyl)-2H-5-tetrazolio]-1,3-benzene disulfonate}-labeled mixture (Rosh Diagnostic) diluted 2-fold with the incubation medium was added thereto in an amount of 20 μL/well, and incubated in the 5% carbon dioxide incubator at 37° C. for 1 hour. Using a microplate spectrophotometer (Biorad's Model 550), the absorbance at 450 nm and 655 nm of each well was measured. The cell growth inhibition activity of the test compound was indicated by the 50% growth inhibition concentration (GI50) thereof. A method of calculating GI50 is described. The absorbance at 655 nm of each well was subtracted from the absorbance at 450 nm thereof to give a value (absorbance difference). The absorbance difference obtained with the cells without being treated with the test compound was taken as 100%, and this was compared with the absorbance difference obtained with the cells treated with the test compound to give the concentration of the compound for 50% cell growth inhibition, and this is referred to as GI50.

Regarding `COC(=O)Cc1cc(O)cc(O)c1-c1cccc([N+](=O)[O-])c1` [Compound 77, Methyl 3,5-dihydroxy-2-(3-nitrophenyl)phenylacetate], the GI50 is at most 50 µM.
As to `COC(=O)Cc1c(C=O)c(O)cc(O)c1-c1ccccc1` [Compound 55, Methyl 2-formyl-3,5-dihydroxy-6-phenylphenylacetate], the GI50 is at most 50 µM.
To `O=C(Cc1c(Br)c(O)cc(O)c1-c1ccccc1)N1CCOCC1` [Compound 35, 2-(2-Bromo-3,5-dihydroxy-6-phenylphenyl)-1-morpholinoethanone] belongs at most 50 µM.
Consider `COCCc1c(Br)c(O)cc(O)c1-c1ccccc1` [Compound 64, 6-Bromo-5-(2-methoxyethyl)-4-phenylbenzene-1,3-diol], for which the GI50 was at most 50 µM.
Take `CCc1c(O)cc(O)c(-c2ccco2)c1CC(=O)N(C)CCOC` [Compound 257, 2-[2-Ethyl-6-(furan-2-yl)-3,5-dihydroxyphenyl]-N-(2-methoxyethyl)-N-methylacetamide]: the GI50 was at most 50 µM.
As to `O=C(NCc1ccccc1)c1c(Br)c(O)cc(O)c1-c1ccccc1` [Compound 51, N-benzyl-2-bromo-3,5-dihydroxy-6-phenylbenzamide], the GI50 is at most 50 µM.
In the case of `COC(=O)Cc1cc(O)cc(O)c1-c1ccc(-c2ccccc2)cc1` [Compound 79, Methyl 3,5-dihydroxy-2-(4-phenylphenyl)phenylacetate], the GI50 is at most 50 µM.
As to `COC(=O)CCc1ccc(-c2c(O)cc(O)cc2CC(=O)OC)o1` [Compound 260, Methyl 3-{5-[2,4-dihydroxy-6-(methoxycarbonylmethyl)phenyl]furan-2-yl}propanoate], the GI50 was at most 50 µM.
Take `COCCN(C)C(=O)Cc1c(C(C)=O)c(O)cc(O)c1-c1cccc(OC)c1` [Compound 141, 2-[2-Acetyl-3,5-dihydroxy-6-(3-methoxyphenyl)phenyl]-N-(2-methoxyethyl)-N-methylacetamide]: the GI50 is at most 50 µM.
For `COC(=O)CCc1ccc(-c2c(O)cc(O)cc2C(OC)c2ccccc2)o1` (centres unmarked) [Compound 237, Methyl 3-{5-[2,4-dihydroxy-6-(1-methoxy-1-phenylmethyl)phenyl]furan-2-yl}propanoate] the value was at most 50 µM.
Regarding `O=C(Cc1c(Br)c(O)cc(O)c1-c1ccccc1)N1CCN(C(=O)c2ccco2)CC1` [Compound 91, 2-(2-Bromo-3,5-dihydroxy-6-phenylphenyl)-1-[4-(2-furoyl)piperazin-1-yl]ethanone], the GI50 was at most 50 µM.
As to `O=C(Cc1c(Br)c(O)cc(O)c1-c1ccccc1)NCc1cccnc1` [Compound 17, 2-(2-Bromo-3,5-dihydroxy-6-phenylphenyl)-N-(pyridin-3-ylmethyl)acetamide], the GI50 was at most 50 µM.
Turning to `CCc1cc(-c2n[nH]c3ccc([N+](=O)[O-])cc23)c(O)cc1O` [Compound 277, 6-Ethyl-4-(5-nitro-1H-indazol-3-yl)benzene-1,3-diol], the GI50 is at most 50 µM.
On to `COC(=O)Cc1c(I)c(O)cc(O)c1-c1ccccc1` [Compound 13, Methyl 3,5-dihydroxy-2-iodo-6-phenylphenylacetate], for which the GI50 is at most 50 µM.
For `COC(=O)Cc1cc(O)cc(O)c1-c1ccc(C(C)=O)cc1` [Compound 73, Methyl 2-(4-acetylphenyl)-3,5-dihydroxyphenylacetate] the value was at most 50 µM.
In the case of `CC(=O)c1c(O)cc(O)c(-c2ccccc2)c1CCCO` [Compound 124, 1-[2,4-Dihydroxy-6-(3-hydroxypropyl)-5-phenylphenyl]ethanone], the GI50 was at most 50 µM.
`CCc1c(O)cc(O)c(-c2ccccc2)c1CCOCC(=O)N(C)C` [Compound 157, 2-[2-(2-Ethyl-3,5-dihydroxy-6-phenylphenyl)ethoxy]-N,N-dimethylacetamide]: the GI50 was at most 50 µM.
For `COCCNC(=O)Cc1c(Br)c(O)cc(O)c1-c1ccccc1` [Compound 23, 2-(2-Bromo-3,5-dihydroxy-6-phenylphenyl)-N-(2-methoxyethyl)acetamide], the GI50 is at most 50 µM.
For `COCCc1c(C(=O)OC)c(O)cc(O)c1-c1ccccc1` [Compound 128, Methyl 2,4-dihydroxy-6-(2-methoxyethyl)-5-phenylbenzoate] the value was at most 50 µM; for `CCc1c(O)cc(O)c(-c2ccccc2)c1CCC(O)CC(O)CO` (centres unmarked) [Compound 169, 6-Ethyl-4-phenyl-5-(3,5,6-trihydroxyhexyl)benzene-1,3-diol], at most 50 µM; for `COC(=O)Cc1cc(O)cc(O)c1-c1ccc(OC)cc1` [Compound 82, Methyl 3,5-dihydroxy-2-(4-methoxyphenyl)phenylacetate], at most 50 µM.
`COCCc1c(C(C)=O)c(O)cc(O)c1-c1cccc(OCc2ccccc2)c1` [Compound 135, 1-[2,4-Dihydroxy-5-(3-benzyloxyphenyl)-6-(2-methoxyethyl)phenyl]ethanone]: the GI50 is at most 50 µM.
To `COCCNCCc1c(Br)c(O)cc(O)c1-c1ccccc1` [Compound 100, 6-Bromo-5-{2-[N-(2-methoxyethyl)amino]ethyl}-4-phenylbenzene-1,3-diol] belongs at most 50 µM; to `COC(=O)Cc1cc(O)cc(O)c1-c1ccc(OC(F)(F)F)cc1` [Compound 75, Methyl 3,5-dihydroxy-2-[4-(trifluoromethoxy)phenyl]phenylacetate], at most 50 µM.
As for `COCCc1c(-c2ccccc2)c(O)cc(O)c1C(C)C` [Compound 151, 6-Isopropyl-5-(2-methoxyethyl)-4-phenylbenzene-1,3-diol], the GI50 is at most 50 µM.
As for `Oc1cc(O)c(-c2ccccc2)c(C2OCCO2)c1Br` [Compound 112, 6-Bromo-5-(1,3-dioxolan-2-yl)-4-phenylbenzene-1,3-diol], the GI50 is at most 50 µM.
`COc1cc(NC(=O)Cc2c(Br)c(O)cc(O)c2-c2ccco2)cc(OC)c1` [Compound 242, 2-[2-Bromo-6-(furan-2-yl)-3,5-dihydroxyphenyl]-N-(3,5-dimethoxyphenyl)acetamide]: the GI50 is at most 50 µM.
For the compound `N#Cc1ccccc1N1CCN(C(=O)Cc2c(Br)c(O)cc(O)c2-c2ccccc2)CC1` [Compound 38, 2-(2-Bromo-3,5-dihydroxy-6-phenylphenyl)-1-[4-(2-cyanophenyl)piperazin-1-yl]ethanone], the GI50 is at most 50 µM.
For the compound `CCc1c(O)cc(O)c(-c2cccc(OCCO)c2)c1CCOCC(O)CO` (centres unmarked) [Compound 194, 5-[2-(2,3-Dihydroxypropoxy)ethyl]-6-ethyl-4-[3-(2-hydroxyethoxy)phenyl]benzene-1,3-diol], the GI50 was at most 50 µM.
With `CCc1c(O)cc(O)c(-c2ccccc2)c1CCOCCCOC` [Compound 176, 6-Ethyl-5-[2-(3-methoxypropoxy)ethyl]-4-phenylbenzene-1,3-diol], the GI50 is at most 50 µM.
Turning to `COCOCCc1c(Br)c(O)cc(O)c1-c1ccccc1` [Compound 111, 6-Bromo-5-[2-(methoxymethoxy)ethyl]-4-phenylbenzene-1,3-diol], the GI50 is at most 50 µM.
As for `COCCOCCc1cc(OS(N)(=O)=O)cc(O)c1-c1ccccc1` [Compound 152, 3-(2-Methoxyethoxy)ethyl-2-phenyl-5-(sulfamoyloxy)phenol], the GI50 is at most 50 µM.
As to `O=C(Cc1c(Br)c(O)cc(O)c1-c1ccccc1)NC1CCN(Cc2ccccc2)CC1` [Compound 18, N-(1-benzylpiperidin-4-yl)-2-(2-bromo-3,5-dihydroxy-6-phenylphenyl)acetamide], the GI50 was at most 50 µM.
As for `CCc1c(O)cc(O)c(-c2cccc(OCc3cccnc3)c2)c1CCOCC(O)CO` (centres unmarked) [Compound 191, 5-[2-(2,3-Dihydroxypropoxy)ethyl]-6-ethyl-4-[3-(pyridin-3-ylmethyloxy)phenyl]benzene-1,3-diol], the GI50 is at most 50 µM.
On to `CCc1c(O)cc(O)c(-c2ccccc2)c1CCC(O)C(O)CO` (centres unmarked) [Compound 181, 6-Ethyl-4-phenyl-5-(3,4,5-trihydroxypentyl)benzene-1,3-diol], for which the GI50 was at most 50 µM.
`COCCc1c(CC(C)C)c(O)cc(O)c1-c1ccccc1` [Compound 96, 6-Isobutyl-5-(2-methoxyethyl)-4-phenylbenzene-1,3-diol]: the GI50 was at most 50 µM.
As to `CCN(CC)C(=O)Cc1c(Br)c(O)cc(O)c1-c1ccco1` [Compound 241, 2-[2-Bromo-6-(furan-2-yl)-3,5-dihydroxyphenyl]-N,N-diethylacetamide], the GI50 is at most 50 µM.
To `COC(=O)Cc1cc(O)cc(O)c1-c1cccc(C(C)=O)c1` [Compound 8, Methyl 2-(3-acetylphenyl)-3,5-dihydroxyphenylacetate] belongs at most 50 µM.
In the case of `CCc1c(O)cc(O)c(-c2ccco2)c1CCOC` [Compound 244, 6-Ethyl-4-(furan-2-yl)-5-(2-methoxyethyl)benzene-1,3-diol], the GI50 is at most 50 µM.
Take `CCc1c(O)cc(O)c(-c2n[nH]c3cc(OC)ccc23)c1CCOCC(O)CO` (centres unmarked) [Compound 330, 5-[2-(2,3-Dihydroxypropoxy)ethyl]-6-ethyl-4-(6-methoxy-1H-indazol-3-yl)benzene-1,3-diol]: the GI50 is at most 50 µM.
Take `COCCc1c(C(C)=O)c(O)cc(O)c1-c1cccc(C(=O)OC)c1` [Compound 119, Methyl 3-[5-acetyl-2,4-dihydroxy-6-(2-methoxyethyl)phenyl]benzoate]: the GI50 was at most 50 µM.
